What was measured:
[1] = target: T1, membrane-derived caspases (Homo sapiens, UniProt P42574); experiment: Kinetics of DEVD-amc hydrolysis by membrane-derived caspases; format: biochemical; settings: substrate concentration varied 1-100 μM
T1 construct: endogenous in cells
T1 sequence (P42574 29-175 limits assumed): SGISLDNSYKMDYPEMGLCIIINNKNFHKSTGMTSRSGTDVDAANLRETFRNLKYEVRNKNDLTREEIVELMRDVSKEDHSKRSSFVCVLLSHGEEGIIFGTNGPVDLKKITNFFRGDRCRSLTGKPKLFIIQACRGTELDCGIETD
T1 sequence (P42574 176-277 limits assumed): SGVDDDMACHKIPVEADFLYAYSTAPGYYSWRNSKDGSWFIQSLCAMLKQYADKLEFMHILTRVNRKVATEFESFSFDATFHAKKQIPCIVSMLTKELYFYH
Procedure: Caspase activity was measured by mixing 50 μl of an enzyme-containing fraction and 200 μl of 25 μM DEVD-amc (Asp-Glu-Val-Asp-aminomethylcoumarin) substrate in ICE buffer (20 mM HEPES, 1 mM EDTA, 0.1% CHAPS, 10% sucrose, 5 mM DTT, pH 7.5) in duplicate Cytoplate wells. Product formation was monitored by the increase in fluorescence (ex=360 nm, em=460 nm) over 1-2 hours at 30 ° C. using the CytoFluor 4000 plate reader (Perseptive Biosystems, Framingham, Mass.). For kinetic studies, the substrate concentration was varied in the range 1-100 μM. For inhibition studies the enzyme was pretreated with 150 μl inhibitor for 30 min at room temperature prior to the addition of 50 μl of 50 μM substrate solution. Inhibitor IC50 values were determined using the equation: […]
The membrane-derived caspase activities were further characterized by measuring the inhibition of DEVD-amc cleavage by several peptide aldehyde inhibitors (Table I). […] The observed IC50 values for the membrane associated caspases are very similar to those for purified fully-processed recombinant human caspase-3. […] N-terminal microsequence analysis of activated, affinity purified heavy membrane caspase confirms that this enzyme is indeed human caspase-3.

[2] = system: membrane-associated procaspase-3 (697-neo and 697-Bcl-2 heavy membranes); experiment: Effect of exogenous cytochrome c on heavy membrane caspase activity; format: biochemical, human; settings: 10 μg/ml bovine cytochrome c during fractionation; 1 μg/ml cytochrome c plus dATP, 40 min at 30° C.; FIG. 6A
Procedure: (§1) Frozen cell pellets containing ≈10^9 cells were thawed and resuspended in cold hypotonic buffer (10 mM Na-HEPES, 5 mM MgCl2, 42 mM KCl, pH 7.4) supplemented with 1 mM PMSF, 1 μg/ml leupeptin, 1 μg/ml pepstatin A, 5 μg/ml aprotinin, 0.1 mM EDTA, 0.1 mM EGTA and 5 mM DTT (Sigma) to a density of ≈1.5×10^8 cells/ml. The samples were incubated on ice for 30 min at which time the cells were lysed using 30-40 strokes with a Dounce homogenizer. The sample was centrifuged twice for 10 min at 500×g, 4° C. to separate the nuclei. The nuclear pellets were then washed twice in the same buffer supplemented with 1.6M sucrose, yielding the nuclear fraction. The supernatant was then centrifuged at 14,000×g for 30 min at 4° C. to pellet the heavy membranes. […] Protein concentrations were measured using Protein Assay Kit II from BioRad with bovine serum albumin as the calibration standard. […]
(§2) Heavy membrane samples were diluted to 1 mg/ml in hypotonic buffer or in 0.25 M sucrose, 10 mM MOPS, 2 mM EDTA, pH 7.4 (Mancini, et al., 1998) containing 5 mM DTT with or without 1% NP-40. […] To examine the time course of spontaneous activation of caspase activity from membranes, 50 μl of heavy membrane slurry containing 50-100 μg total protein was mixed with 200 μl hypotonic buffer containing 25 μM DEVD-amc substrate and 6 mM DTT in 96 well Cytofluor plates and fluorescence was measured over time. […]

[3] = system: caspase-3 in cytoplasmic fractions (697-neo and 697-Bcl-2 cells); experiment: Effect of exogenous cytochrome c on cytoplasmic fraction caspase activity; format: biochemical, human; settings: cytochrome c during fractionation and assay; neo and Bcl-2 cells; FIG. 6B
Procedure: as §1, §2

Km [1]	Effect on membrane-derived caspase activity (DEVD-amc cleavage) [2]	Substance	Effect on DEVD-amc cleavage activity of cytoplasmic fractions [3]
10 µM	–	Acetyl-Asp-Glu-Val-Asp-aminomethylcoumarin [DEVD-amc]	–
–	no effect	cytochrome c: bovine cytochrome c (Sigma)	strongly activated
